The values below come from patent US8609656B2, “Heteroarylphenylurea derivative” (Chugai Seiyaku Kabushiki Kaisha, priority 2004, dated 2013).

Molecules are shown by their SMILES. In brackets after ≈: the same amount, converted by molar mass. Where a name gives a salt, the structure may show the parent alone.

The term solubility denotes how much of the substance goes into solution per volume.

Series [1] deals with VEGF non-dependent human umbilical vein endothelial cells (HUVEC). As to the kind of experiment: Cell growth inhibition test, VEGF non-dependent HUVEC. Format: cell-based. Conditions: 72 hours, WST-1, read-out: HUVEC (VEGF Nondependence), 50% Growth Inhibition Concentration (IC50 value). Here is the method: (§1) Cell Growth Inhibition Test
(§2) With respect to the compounds relating to the present invention and the known compound (BAY 43-9006), cell growth inhibition activity was measured.
(§3) A sample compound was in-series diluted with dimethyl sulfoxide, and then was 1/50 diluted with a Ca^2+- and Mg^2+-free phosphate-bufferized physiological saline and its 20 μL was poured to a 96-well plate. […] Each of these cell suspensions was dividedly poured to the sample added plate in 180 μL/well and cultured in a 5% carbon dioxide incubator at 37° C. After 72 hours, 20 μL of WST-(HCT 116, a product of Dojin) or WST-1 (HUVEC, a product of Roche diagnostics) was added thereto to each well and the absorbance at 450 nm (reference wavelength: 650 nm) was measured. From the growth inhibition ratio of addition of the sample compound to no-addition of the sample compound as a reference, the 50% growth inhibition IC50) of the sample compound was calculated.
(§4) With respect to the group of representative compounds of the present invention, the IC50 values of HCT 116 and HUVEC (VEGF nondependent growth and VEGF dependent growth) are shown in Tables 5-1 to 5-3.

Series [2] deals with VEGF dependent HUVEC. As to the kind of experiment: Cell growth inhibition test, VEGF dependent HUVEC. Format: cell-based. The settings on record: Homo sapiens, 20 ng/mL of VEGF, 72 hours, WST-1, read-out: HUVEC (VEGF Dependence), 50% Growth Inhibition Concentration (IC50 value). As to the method:
as §1, §2, §3, §4
Background: Tetrazolium assays rely on reduction of a dye to a coloured formazan, in cell work by metabolically active cells.

The subject of series [3] is human colorectal cancer cell strain HCT 116. Description: Cell growth inhibition test, HCT 116. Format: cell-based. Conditions: 72 hours, read-out: HCT116, 50% Growth Inhibition Concentration (IC50 value). Here is the method:
as §1, §2, §3, §4

The target in series [4] is T1, recombinant Raf-1 protein (activated type GST-Raf-1) (Homo sapiens, UniProt P04049).
T1 construct: fused on or other part: GST tag fused to Raf-1
T1 sequence (P04049 349-648 limits assumed): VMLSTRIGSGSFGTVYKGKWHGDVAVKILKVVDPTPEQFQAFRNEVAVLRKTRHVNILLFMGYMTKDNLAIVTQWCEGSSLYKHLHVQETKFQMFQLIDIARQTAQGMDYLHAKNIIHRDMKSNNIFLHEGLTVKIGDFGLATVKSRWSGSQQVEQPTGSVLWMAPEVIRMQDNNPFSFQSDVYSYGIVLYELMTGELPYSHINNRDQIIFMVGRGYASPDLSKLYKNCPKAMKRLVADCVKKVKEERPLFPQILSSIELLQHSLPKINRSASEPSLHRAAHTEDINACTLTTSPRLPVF
Description: RAF-1 enzyme inhibition test (33P incorporation into MEK 1 protein). Format: biochemical. Conditions: 10 μM ATP, GST-MEK1 substrate, 30° C., 45 minutes; read-out: Raf-1 Enzyme Inhibition, 50% Enzyme Inhibition Concentration (IC50 value). As to the method: RAF-1 Enzyme Inhibition Test
With respect to the compounds relating to the present invention and the known compound (BAY 43-9006):
[drawing 660] the Raf-1 protein inhibition activity was measured. The enzymatic reaction was measured by incorporation of ^33P-phosphoric acid into MEK 1 protein by a recombinant Raf-1 protein. The activity was measured by preparing 50 μL of a reaction solution containing a dimethyl sulfoxide solution of the compound relating to the present invention or the compound BAY 43-9006 at a varied concentration [as the final concentration, the reaction solution containing […] of TRIS hydrochloric buffer (pH 7.5), 1 mM of dithiothreitol, 100 mM of sodium chloride, 10 mM of potassium fluoride, 1 mM of sodium vanadate, 10 mM of magnesium chloride, 10 μM of adenosine triphosphate (ATP, containing ^33P-ATP of 12580Bq), 2 μg of GST-MEK1 and 25 ng of an activated type GST-Raf-1]; keeping the reaction solution at 30° C. for 45 minutes; adding 100% trichloroacetic acid to the reaction solution in an amount twice the volume of the reaction solution to precipitate a proteinous component; recovering the precipitate on a glass filter; and measuring the radioactivity of the recovered product. The 50% inhibition concentration (IC50) was obtained from the inhibition ratio to a sample-free reference.
The compound BAYT 43-9006 was prepared on the basis of the description (Example 41) of WO 00/42012.

Series [5] is described as follows: Solubility to fasted state simulated intestinal fluid. The series is classed as physicochemical. The settings on record: fassif, kinetic from dmso stock, fasted state simulated intestinal fluid (pH 6.5), 37° C. Here is the method:
Method of Measuring Solubility to Fasted State Simulated Intestinal Fluid
To a 96-well plate, 2 μL of a dimethyl sulfoxide solution of the compound relating to the present invention or that of the compound BAY 43-9006 was poured at one time, respectively, and fasted state simulated intestinal fluid (pH 6.5) was added 200 μL by 200 μL, and the plate was shaken at 37° C. for 20 hours. The solution was filtered with a membrane filter and 101 μL of the filtrate was transferred to an UV plate, and 100 μL of a mixed solution of ethanol:water=2:1 was added thereto. On the other hand, as a standard solution, 2 μL of a dimethyl sulfoxide solution was added to a solution containing 4 μL of dimethyl sulfoxide, 400 μL of ethanol and 200 μL of water and the obtained solution was transferred 101 μL by 101 μL to the UV plate and to this UV plate, the simulated fasting bile-containing intestinal juice (pH 6.5) was added 100 μL by 100 μL. The solubility was calculated by the following equation. Solubility=(absorbance of sample solution-blank)/(absorbance of standard solution-blank)×[…]
165 μL is a concentration of the standard solution.
Composition of Fasted State Simulated Intestinal Fluid
Fasted state simulated intestinal fluid was prepared in accordance with E. Galia et al., Pharm. Res., 698, 1998.
To about 90 mL of water, 161 mg of taurocholic acid, 59 mg of L-α-phosphatidylcholine, 0.39 g of potassium dihydrogenphosphate and 0.77 g of potassium chloride were added and the pH of the mixture solution […] and the mixture solution was filtered with a membrane filter.

With `CNc1ncnc2c1ncn2-c1ccc(NC(=O)Nc2ccc(CCCN(C)C)c(C(F)(F)F)c2)cc1` [Table 2, Compound 74], the IC50 in series [1] turned out to be 0.9 µM; in series [2], 0.083 µM; in series [3], 1.2 µM.
The like results for `CNc1ncnc2c1ncn2-c1ccc(NC(=O)Nc2ccc(CN3CCN(C)CC3)c(C(F)(F)F)c2)cc1` [Table 2, Compound 46, 1-[4-(6-(Methylamino)purin-9-yl)phenyl]-3-[4-(4-methylpiperazin-1-ylmethyl)-3-(trifluoromethyl)phenyl]urea] were, in that order, 0.13 µM, 0.0025 µM and 0.24 µM.
The like results for `CN1CCN(Cc2ccc(NC(=O)Nc3ccc(-n4cnc5cnccc54)cc3)cc2C(F)(F)F)CC1` [Table 3, Compound 18, 1-(4-Imidazo[4,5-c]pyridin-1-yl-phenyl)-3-[4-(4-methyl-piperazin-1-ylmethyl)-3-(trifluoromethyl)phenyl]urea] were, in that order, 3.1 µM, 0.026 µM and 2.7 µM.
Consider `CNc1ncnc2c1ncn2-c1ccc(NC(=O)Nc2ccc(OCCN3CCOCC3)c(C(F)(F)F)c2)cc1` [Table 2, Compound 53, 1-[4-(6-(Methylamino)purin-9-yl)phenyl]-3-[4-(2-morpholin-4-yl-ethoxy)-3-(trifluoromethyl)phenyl]urea], for which the figures for the IC50 in series [1], in series [2] and in series [3] were 1.7 µM, 0.65 µM and 1.9 µM, respectively.
Take `CNc1ncnc2c1ncn2-c1ccc(NC(=O)Nc2cc(CCCN3CCCC3)cc(C(F)(F)F)c2)cc1` [Table 3, Compound 45, 1-[4-(6-(Methylamino)purin-9-yl)phenyl]-3-[3-(3-pyrrolidin-1-yl-propyl)-5-(trifluoromethyl)phenyl]-urea]: the IC50 in series [4] was 0.073 µM. Further, the concentration in solution in series [5] (solubility at 20 h) came to 0.079 mg/mL (≈ 147 µM).
For `CNc1ncnc2c1ncn2-c1ccc(NC(=O)Nc2cc(N(C)C)cc(C(F)(F)F)c2)cc1` [Table 2, Compound 48, 1-(3-Dimethylamino-5-(trifluoromethyl)phenyl)-3-[4-(6-(methylamino)purin-9-yl)phenyl]urea], the IC50 in series [1] amounted to 3.7 µM; in series [2], 0.28 µM; in series [3], 2.4 µM.
As to `Nc1ncnc2c1ncn2-c1ccc(N(O)C(=O)Nc2ccc(Cl)c(C(F)(F)F)c2)cc1` [Table 1, Compound 49, 1-[4-(6-Aminopurin-9-yl)phenyl]-3-(4-chloro-3-(trifluoromethyl)phenyl)-1-hydroxyurea hydrochloride], the values for the IC50 in series [1], in series [2] and in series [3] were 4.1 µM, 0.19 µM and 7.3 µM, respectively.
Regarding `CCN1CCN(Cc2ccc(NC(=O)Nc3ccc(-n4cnc5c(NC)ncnc54)cc3)cc2C(F)(F)F)CC1` [Table 3, Compound 14, 1-[4-(4-Ethyl-piperazin-1-ylmethyl)-3-(trifluoromethyl)phenyl]-3-[4-(6-(methylamino)purin-9-yl)phenyl]urea], the IC50 was 0.2 µM in series [1], 0.004 µM in series [2] and 0.3 µM in series [3].
`C=Cc1nc2c(N)ncnc2n1-c1ccc(NC(=O)Nc2cc(CN3CCN(C)CC3)cc(C(F)(F)F)c2)cc1` [Table 2, Compound 28]: the IC50 in series [4] was 0.069 µM. The same compound displayed a solubility at 20 h in series [5] of 0.238 mg/mL (≈ 431 µM).
Regarding `CNc1ncnc2c1ncn2-c1ccc(N(O)C(=O)Nc2ccc(Cl)c(C(F)(F)F)c2)cc1` [Table 1, Compound 53, 3-(4-Chloro-3-(trifluoromethyl)phenyl)-1-hydroxy-1-[4-(6-(methylamino)pruin-9-yl)phenyl]urea], the IC50 in series [1] was 2.8 µM; in series [2], 0.44 µM; in series [3], 3.4 µM.
Regarding `CNc1ncnc2c1ncn2-c1ccc(NC(=O)Nc2ccc(CN3CCN(C(C)C)CC3)c(C(F)(F)F)c2)cc1` [Table 3, Compound 28, 1-[4-(4-Isopropyl-piperazin-1-ylmethyl)-3-(trifluoromethyl)phenyl]-3-[4-(6-(methylamino)purin-9-yl)phenyl]urea], the IC50 was found to be 0.3 µM in series [1], 0.008 µM in series [2] and 0.2 µM in series [3].
Turning to `C=Cc1nc2c(NC(=O)NCCC)ncnc2n1-c1ccc(NC(=O)Nc2ccc(Cl)c(C(F)(F)F)c2)cc1` [Table 2, Compound 13, 1-(9-{4-[3-(4-Chloro-3-(tri-fluoromethyl)phenyl)ureido]-phenyl}-8-vinyl-9H-purin-6-yl)-3-propylurea], in series [4], the IC50 amounted to 0.015 µM.
Turning to `CN1CCN(Cc2cc(NC(=O)Nc3ccc(-n4c(I)nc5c(N)ncnc54)cc3)cc(C(F)(F)F)c2)CC1` [Table 2, Compound 27], the IC50 in series [4] is 0.067 µM.
In the case of `CNc1ncnc2c1ncn2-c1ccc(NC(=O)Nc2cc(CCN3CCCC3)cc(C(F)(F)F)c2)cc1` [Table 3, Compound 31, 1-[4-(6-(Methylamino)purin-9-yl)phenyl]-3-[3-(2-pyrrolidin-1-yl-ethyl)-5-(trifluoromethyl)phenyl]urea], in series [4], the IC50 came out at 0.13 µM.
In the case of `CNc1ncnc2c1ncn2-c1ccc(NC(=O)Nc2cc(CCN3CCOCC3)cc(C(F)(F)F)c2)cc1` [Table 2, Compound 73, 1-[4-(6-(Methylamino)purin-9-yl)phenyl]-3-[3-(2-morpholin-4-yl-ethyl)-5-(trifluoromethyl)phenyl]urea], the IC50 in series [4] is 0.084 µM.
Take `Nc1ncnc2ncn(-c3ccc(NC(=O)Nc4ccc(Cl)c(C(F)(F)F)c4)cc3)c12` [Table 3, Compound 1, 1-[4-(6-(Aminopurin-7-yl)phenyl)-3-(4-chloro-3-(trifluoromethyl)phenyl)urea hydrochloride]: the IC50 in series [4] came out at 0.051 µM.
For `CNc1ncnc2c1ncn2-c1ccc(NC(=O)Nc2cc(C(=O)NCCN(C)C)cc(C(F)(F)F)c2)cc1` [Table 2, Compound 40, N-(2-Dimethylaminoethyl)-3-{3-[4-(6-(methylamino)purin-9-yl)phenyl]ureido}-5-(trifluoromethyl)benzamide], the IC50 in series [4] is 0.075 µM.
On to `CN1CCN(Cc2cc(NC(=O)Nc3ccc(-n4cnc5ncnc(N)c54)cc3)cc(C(F)(F)F)c2)CC1` [Table 3, Compound 4], for which, in series [4], the IC50 turned out to be 0.053 µM. Moreover, the solubility at 20 h in series [5] was 0.219 mg/mL (≈ 417 µM).
Consider `CC(=O)Oc1cccc2c1ccn2-c1ccc(NC(=O)Nc2ccc(Cl)c(C(F)(F)F)c2)cc1` [Table 1, Compound 18, Acetic acid 1-{4-[3-(4-chloro-3-(trifluoromethyl)phenyl)ureido]phenyl}-1H-indol-4-yl ester], for which the IC50 in series [4] is 0.047 µM.
With `CNc1ncnc2c1ncn2-c1ccc(NC(=O)Nc2cc(CCN3CCCCC3)cc(C(F)(F)F)c2)cc1` [Table 3, Compound 30, 1-[4-(6-(Methylamino)purin-9-yl)phenyl]-3-[3-(2-piperidin-1-yl-ethyl)-5-(trifluoromethyl)phenyl]urea], the IC50 in series [4] stood at 0.17 µM.
